Experimental data taken from patent US10420758B2, “Indolinyl-sulfonamide inhibitors of tankyrase and methods of use thereof” (The Board of Regents of the University of Texas System, priority 2015, dated 2019).

Tested on: Dvl2
Assay: Ligand-dependent phosphorylation of Dvl2
Assay type: cell-based, human
Conditions: HeLa cells, FIG. 4E
Excerpt: FIGS. 4A-4F show Tnks inhibitors induce telomeric stress in human cells independently of Wnt/β-catenin pathway inhibition. (FIG. 4A) Porcn inhibitors afford a Tnks-independent approach to disrupting Wnt/β-catenin signaling. Chemicals targeting the Wnt acyltransferase Porcn abrogate Wnt palmitoylation which in turn results in loss of activity of the Frizzled (Fzd) family of Wnt receptors. Fzd receptors directly induce activation of the cytoplasmic signaling molecule Dishevelled (Dvl) in a ligand-dependent manner, which in turn results in activation of β-catenin and transcription mediated by the TCF family of DNA binding proteins. IWP-2 and the clinical candidate LGK-974 represent two structurally distinct Porcn inhibitors. (FIG. 4B) Tnks but not Porcn inhibitors induce DNA damage at telomeres. The appearance of co-localized Terf2 and pH2A.X (an indicator of DNA damage at the telomere ends; Telomere Induced Foci or TIFs) was scored using indirect immunofluorescence in Hela cells (expressing wild-type Apc protein). (FIG. 4C) Quantification of results represented in “B”. Cells with >5 TIFs were scored as positive for telomeric damage (left bars). Mean total phosphorylated H2A.X (γ H2A.X) was used to measure general DNA damage responses (right bars). […] Digital droplet-based telomerase extension analysis of genomic DNA isolated from HeLa cells treated for 24 hrs with indicated compounds. […]

Structure (SMILES)	ligand-dependent phosphorylation of Dvl2
Cc1ccc2nc(NC(=O)CSc3nc4c(c(=O)n3-c3ccccc3)SCC4)sc2c1 [IWP-2]	block ligand-dependent phosphorylation of Dvl2
Cc1cc(-c2ncc(CC(=O)Nc3ccc(-c4cnccn4)cn3)cc2C)ccn1 [LGK-974]	block ligand-dependent phosphorylation of Dvl2
